# Results as given in patent US20030206968A1, “Fungicidal mixtures” (priority 1999, published 2003).
# Legend:
# Format in all cases: in vivo
# [1] = tested on: Botrytis cinerea; assay: Field test, Botrytis cinerea in vines; conditions: Example 33
# Method: (§1) The trials are carried out under greenhouse (Examples 1 to 32) or field conditions (Examples 33 to 40) in residual or curative applications. The fungicides are applied in single treatments, or in a combination comprising an azolopyrimidine of formula I and a compound selected from the classes (A), (B) and (C) as defined above. The compounds are applied in form of an aqueous spray mix obtained from a concentrated formulation or the technical material.
# (§2) For the field study formulated Azolopyrimidine A, B or C and formulated compounds from the classes (A), (B) and (C) were used.
# (§3) Assessments of the diseases took place at the indicated day after the application of the compounds. Per cent infected leaf area infected was evaluated. The efficacy of the compounds/compounds mixtures to control the diseases was calculated by using the formula given above under item 4: […]
# (§4) Synergy was calculated using the % disease control values of specific treatments for the two COLBY formula given hereinabove
# The compounds are applied according to good agricultural practice in the form of an aqueous spray mix obtained from a concentrated formulation or the technical material at a rate of 400 l/ha. The disease control is evaluated according to the formula given for the greenhouse tests. […]
# [2] = tested on: Puccinia recondita; assay: Greenhouse, Puccinia recondita on wheat, 1 day residual; conditions: Puccinia recondita, Example 11, read-out: Observed Efficacy
# From the text: The fungicides are applied in single treatments, or in a combination comprising an azolopyrimidine of formula I and a compound selected from the classes (A), (B) and (C) as defined above. The compounds are applied in form of an aqueous spray mix obtained from a concentrated formulation or the technical material.
# (§5) 1. Seed is planted in 6 cm diameter plastic pots and maintained in the greenhouse.
# (§6) 2. When the primary leaf is fully expanded in the case of cereals or several leaves are present in the case of dicots, formulated test compounds are sprayed with a three nozzle overhead fungicide sprayer to near run-off. Alternatively, a single nozzle overhead track sprayer is used for application of the compounds to cereals at a rate of 200 l/ha. Plants are then allowed to air-dry.
# (§7) 3. Inoculation precedes treatment in the case of curative evaluations and follows treatment in case of residual evaluations. For inoculation of powdery mildew disease, plants are set up on greenhouse benches with bottom watering mats and inoculated by dusting them with conidia from infected plants. Between inoculation and treatment for curative evaluations and between treatment and inoculation for residual evaluations, plants are maintained in the greenhouse with bottom watering.
# (§8) For inoculation of non-powdery mildew diseases, an aqueous spore suspension of the pathogen is applied to the plant and the plants are kept 1-2 days in a moist infection chamber before being returned to the greenhouse where they are maintained by bottom watering.
# (§9) 4. Disease on the foliage as percent leaf area with disease symptoms/signs is evaluated about 7 days after inoculation. In the case of wheat, the tips and bases of the leaves are excluded from the evaluation. [formula]
# (§10) 1. Technical compounds are formulated in a solvent/surfactant system consisting of 5% acetone and 0.05% Tween 20 in deionized water. Compounds are dissolved in acetone prior to addition of the water; the Tween 20 can be added through either the acetone or the water. Dilutions are made using the solvent/surfactant system. Formulated compounds are prepared using deionized water.
# (§11) 2. Two kinds of controls are included: Plants treated with the solvent/surfactant solution and inoculated (Solvent Blank). Untreated plants which are inoculated (Inoculated Control).
# as §3, §4
# Fungicidal efficacy of the mixture of Azolopyrimidine C+metconazole (1 day residual) against Puccinia recondita on wheat The tank mix was obtained from a SC formulation containing 100 g Azolopyrimidine C per liter and an EC containing 100 g metconazole per liter. […]
# Fungicidal efficacy of the mixture of Azolopyrimidine C+fluazinam (1 day residual) against Puccinia recondita on wheat The tank mix was obtained from technical material of Azolopyrimidine C and a SC formulation containing 500 g fluazinam per liter. […]
# [3] = tested on: Septoria tritici; assay: Greenhouse, Septoria tritici on wheat, 1 day residual; conditions: Example 9
# Method: as §1, §5, §6, §7, §8, §9, §10, §11, §3, §4
# Fungicidal efficacy of the mixture of Azolopyrimidine C+metconazole (1 day residual) against Septoria tritici on wheat The tank mix was obtained from a SC formulation containing 100 g Azoplopyrimidine C per liter and an EC containing 100 g metconazole per liter.
# [4] = tested on: Pyrenophora teres; assay: Greenhouse, Pyrenophora teres on barley, 1 day residual; conditions: Example 10
# Method: as §1, §5, §6, §7, §8, §9, §10, §11, §3, §4
# Fungicidal efficacy of the mixture of Azolopyrimidine C+metconazole (1 day residual) against Pyrenophora teres on barley The tank mix was obtained from a SC formulation containing 100 g Azolopyrimidine C per liter and an EC containing 100 g metconazole per liter.
# [5] = tested on: Rhynchosporium secalis; assay: Greenhouse, Rhynchosporium secalis on barley, 1 day residual; conditions: Example 8; dose rate 100 ppm
# Method: as §1, §5
# 2. When the primary leaf is fully expanded in the case of cereals or several leaves are present in the case of dicots, formulated test compounds are sprayed with a three nozzle overhead fungicide sprayer to near run-off. […]
# 4. Disease on the foliage as percent leaf area with disease symptoms/signs is evaluated about 7 days after inoculation. […]
# as §3
# Synergy was calculated using the % disease control values of specific treatments for the two COLBY formula given hereinabove […]
# [6] = tested on: Septoria tritici; assay: Field test, Septoria tritici on wheat
# Method: as §1, §2, §3, §4
# (§12) The compounds are applied according to good agricultural practice in the form of an aqueous spray mix obtained from a concentrated formulation or the technical material at a rate of 400 l/ha. The disease control is evaluated according to the formula given for the greenhouse tests.
# Fungicidal efficacy of the mixture of Azolopyrimidine C+metconazole in the field against Septoria tritici on wheat The tank mix was obtained from an EC formulation containing 150 g Azolopyrimidine C per liter and a SL formulation containing 60 g metconazole per liter. The observed and expected efficacies with different rates are given in Table XXXIVa (19 days after application) and Table XXXIVb (25 days after application):
# Fungicidal efficacy of the mixture of (S)-Azolopyrimidine C+kresoxim methyl in the field against Septoria tritici on wheat The tank mix was obtained from a SC formulation containing 100 g (S)-Azolopyrimidine C per liter and a WG formulation containing 500 g kresoxim methyl per kg. The observed and expected efficacies with different rates are given in Tables XXXVa (7 days after application), XXXVb (22 days after application), XXXVc (34 days after application), and XXXVd (41 days after application):
# Fungicidal efficacy of the mixture of Azolopyrimidine A and different cereal fungicides the field against Septoria tritici on wheat 15 days after application The tank mix was obtained from an SC formulation containing 100 g Azolopyrimidine A per liter and commercially available formulations of metconazole, epoxiconazole or propiconazole, respectively.
# [7] = tested on: Puccinia recondita; assay: Field test, Puccinia recondita on wheat; conditions: metconazole 45 g/ha alone, 50 days after application
# Method: as §1, §2, §3, §4, §12
# Fungicidal efficacy of the mixture of Azolopyrimidine A and different cereal fungicides in the field against Puccinia recondita on wheat 50 days after application The tank mix was obtained from an SC formulation containing 100 g Azolopyrimidine A per liter and commercially available formulations of metconazole, epoxiconazole, propiconazole or kresoxim methyl, respectively.
# [8] = tested on: Blumeria graminis; assay: Field test, Blumeria graminis on wheat; conditions: metconazole 45 g/ha alone, 15 days after application
# Method: as §1, §2, §3, §4, §12
# Fungicidal efficacy of the mixture of (S)-Azolopyrimidine C+cyproconazole in the field against Blumeria graminis on wheat 17 days after application The tank mix was obtained from a SC formulation containing 100 g (S)-Azolopyrimidine C per liter and an EC formulation containing 60 g cyproconazole per liter.
# Fungicidal efficacy of the mixture of (S)-Azolopyrimidine C+azoxystrobin in the field against Blumeria graminis on wheat 17 days after application The tank mix was obtained from a SC formulation containing 100 g (S)-Azolopyrimidine C per liter and a SC formulation containing 250 g azoxystrobin per kg.
# Fungicidal efficacy of the mixture of Azolopyrimidine A and different cereal fungicides in the field against Blumeria graminis on wheat 15 days after application The tank mix was obtained from an SC formulation containing 100 g Azolopyrimidine A per liter and commercially available formulations of metconazole, epoxiconazole or kresoxim methyl, respectively.
smiles,measurement,setting,value
"Fc1cccc(Cl)c1-c1c(Cl)nc2ncnn2c1NCC(F)(F)F [Azolopyrimidine B, 5-chloro-6-(2-chloro-6-fluorophenyl)-7-(2,2,2-trifluoroethylamino)-[1,2,4]triazolo[1,5-a]pyrimidine]",Observed Efficacy,[1]; dose rate 250 g/ha,58%
CC1(C)CCC(Cc2ccc(Cl)cc2)C1(O)Cn1cncn1 (stereo not shown) [metconazole],pest or weed control at 2 ppm,[2]; dose rate 2 ppm,0%
same,pest or weed control at 8 ppm,[2]; dose rate 8 ppm,0%
same,pest or weed control at 10 ppm,[2]; dose rate 10 ppm,8%
same,pest or weed control at 25 ppm,[2]; dose rate 25 ppm,14%
same,pest or weed control at 40 ppm,[2]; dose rate 40 ppm,31%
same,pest or weed control at 50 ppm,[2]; dose rate 50 ppm,72%
same,pest or weed control at 125 ppm,[2]; dose rate 125 ppm,97%
same,Observed Efficacy,[3]; dose rate 2 ppm,0%
same,Observed Efficacy,[3]; dose rate 5 ppm,0%
same,Observed Efficacy,[3]; dose rate 8 ppm,0%
same,Observed Efficacy,[3]; dose rate 10 ppm,0%
same,Observed Efficacy,[3]; dose rate 25 ppm,0%
same,Observed Efficacy,[4]; dose rate 10 ppm,4%
same,Observed Efficacy,[4]; dose rate 25 ppm,9%
same,Observed Efficacy,[4]; dose rate 40 ppm,34%
same,Observed Efficacy,[4]; dose rate 125 ppm,68%
same,Observed Efficacy,[4]; dose rate 200 ppm,73%
same,Observed Efficacy,[5],87%
same,Observed Efficacy,"[6]; Example 34, 19 days after application, dose rate 15 g/ha",9%
same,Observed Efficacy,"[6]; Example 34, 19 days after application, dose rate 30 g/ha",36%
same,Observed Efficacy,"[6]; Example 34, 19 days after application, dose rate 45 g/ha",24%
same,Observed Efficacy,"[6]; Example 34, 25 days after application, dose rate 15 g/ha",33%
same,Observed Efficacy,"[6]; Example 34, 25 days after application, dose rate 60 g/ha",48%
same,Observed Efficacy,"[6]; metconazole 45 g/ha alone, 15 days after application, field, wheat",77
same,Observed Efficacy,[7],75
same,Observed Efficacy,[8],54
Cc1cc(C)nc(Nc2ccccc2)n1 [pyrimethanil],Observed Efficacy,[1]; dose rate 500 g/ha,66%
